For one test, the system named is SRS-A release. Nature of the test: inhibition of leukotriene (SRS-A) release in vitro, lung fragments of sensitized guinea pigs challenged with ovalbumin. In kind it is cell-based. As to conditions: 12 min preincubation, 20 μg/ml ovalbumin challenge 15 min; for inhibition at 10 µM: Cavia porcellus, guinea pig lung fragments. Here is the method: In one such test procedure, the anti-allergy method of this invention is identified by tests which measure a compound's inhibition of leukotriene release in sensitized guinea pigs. Male Hartley guinea pigs (250-300 g) are sensitized with 5 mg ovalbumin injected i.p. and 5 mg injected s.c. in 1 ml saline on day 1 and 5 mg ovalbumin injected i.p. on day 4. The sensitized animals are used 3-4 weeks later at which time they weigh 450-500 g. Sensitized guinea pigs are killed by a blow to the head and the lungs removed and cleaned of visible connective tissue, trachea and large blood vessels. The lungs from individual animals are sliced into fragments approximately 1 mm in thickness using a McIlwain tissue chopper and then washed with oxygenated Tyrode's buffer. Weighed aliquots (approximately 400 mg wet weight) of lung are transferred into vials containing 2 ml of fresh Tyrode's solution (containing 10 mM cysteine) and incubated in the presence or absence of test compound for 12 min at 37° C. The tissues are then challenged with 20 μg ovalbumin/ml (final concentration) and incubated for 15 min.
To measure leukotriene release, an aliquot of supernatant fluid is extracted with 4 volumes of 100% ethanol. After removal of the precipitated protein, the leukotriene content is measured by a radioimmunoassay using [^3 H]LTC4 and antiserum obtained from New England Nuclear. […] Percent inhibition of lekotriene release is calculated by comparing for each lung the release in the presence of the test compound to that in the absence of test compound.

The test system of the next test is sensitized guinea pigs. Kind of test: suppression of anaphylactic bronchospasm in ovalbumin-sensitized guinea pigs. It counts as in vivo, guinea pig. To be noted: 5 mg/kg, orally 2 hours before ovalbumin challenge; peak increase in intratracheal pressure within 15 minutes vs vehicle. Here is the method:
Male Hartley guinea pigs (250-300 g) are sensitized with 5 mg ovalbumin injected i.p. and 5 mg injected s.c. in 1 ml saline on day 1 and 5 mg ovalbumin injected i.p. on day 4. The sensitized animals are used 3-4 weeks later at which time they weigh 450-500 g. The sensitized guinea pigs are fasted overnight and the following morning are anesthetized with 0.9 ml/kg i.p. of dialurethane (0.1 g/ml diallylbarbituric acid, 0.4 g/ml ethylurea and 0.4 g/ml urethane). The trachea are cannulated and the animals are ventilated by a Harvard® rodent respirator at 50 strokes/minute with a stroke volume of 5 ml. A side arm to the tracheal cannula is connected to a pressure transducer (Harvard) to obtain a continuous measure of intratracheal pressure which is recorded on a polygraph (Harvard). The jugular vein is cannulated for the i.v. administration of substances. The sensitized guinea pigs are injected i.v. with 1 mg/kg propranolol, 5 mg/kg indomethacin and 2 mg/kg mepyramine given together in a volume of 1 ml/kg. […] Bronchoconstriction is measured as the peak increase in intratracheal pressure occurring within 15 minutes after antigen challenge.
Test compounds are administered orally 2 hours before challenge with ovalbumin. Suppression of anaphylactic bronchospasm is expressed as a percent inhibition of the peak increase in intratracheal pressure by comparison to a vehicle-treated control group.

In the case of `O=c1c(N2CCCC2)cc2cccnc2n1-c1ccccc1` [3-(1-pyrrolidinyl)-1-phenyl-1,8-naphthyridin-2(1H)-one], the inhibition at 10 µM in the test with SRS-A release amounted to 34%. The “Inhibition of anaphylactic bronchospasm, % Inhibition” value with sensitized guinea pigs is given as 61%.
With “3-[3-(Hexahydro-1H-azepin-1-yl)-1,2-dihydro-2-oxo-1,8-naphthyridin-1-yl]-benzo-nitrile”, the “Inhibition of SRS-A release in vitro - Guinea Pig Lung 10 μM” value in the test on SRS-A release turned out to be 46%.
As to `O=c1c(N2CCOCC2)cc2cccnc2n1-c1ccccc1` [3-(4-Morpholinyl)-1-phenyl-1,8-naphthyridin-2(1H )-one], the inhibition at 10 µM in the test on SRS-A release was found to be 65%. In the test with sensitized guinea pigs, the “Inhibition of anaphylactic bronchospasm, % Inhibition” value was 93%.
For `N#Cc1cccc(-n2c(=O)c(N3CCCC3)cc3cccnc32)c1` [3-(1-Pyrrolidinyl)-1-(3-cyanophenyl)-1,8-naphthyridin-2-(1H )-one], the inhibition at 10 µM in the test on SRS-A release worked out at 43%.
Same read-out and setting: for `O=c1c(N2CCCC2)cc2cccnc2n1-c1cccc(C(F)(F)F)c1` [3-(1-pyrrolidinyl)-1-(3-trifluoromethylphenyl)-1,8-naphthyridin-2(1H)-one] the value was 46%.
On to “3-[1,2-Dihydro-3-(4-morpholinyl)-2-oxo-1,8-naphthyridin-1-yl]benzonitrile”, for which, in the test on SRS-A release, the “Inhibition of SRS-A release in vitro - Guinea Pig Lung 10 μM” value is 66%.

Source of the values: patent US5760034A, “Heterocyclic substituted naphthyridinones and methods and compositions employing them” (Schering Corporation, priority 1992, dated 1998).
